The record followed here is US20240368153A1, “Aminopyridine-based MTA-Cooperative PRMT5 Inhibitors” (Mirati Therapeutics, Inc., priority 2021, published 2024).

Experiment [1] deals with T1, PRMT5/MEP50 complex (Homo sapiens (Human), UniProt O14744). The experiment is described as follows: PRMT5:MEP50 HotSpot Assay. The experiment is classed as biochemical. Particulars: read-out: IC50 + 2 μM MTA, full-length histone H2A, presence of 2 μM MTA. How it is done: The assay uses recombinant full-length histone H2A as the PRMT5 substrate. Enzymatic transfer of the tritiated methyl group from S-adenosyl-L-[methyl-3H]methionine to the histone H2A protein generated a radiolabeled histone […] in a scintillation counter to determine the activity of PRMT5 enzyme in the presence and absence of compound. […] Briefly, compounds of the present invention were solubilized in 100% DMSO at a highest concentration of 10 mM. […] Control samples lacking compound, PRMT5/MEP50 complex or various reaction components also were prepared and processed in parallel with compound test samples. SAH was used as a positive control for assay validation. To measure PRMT5 inhibitory activity. 1 nM PRMT5/MEP50 complex (Reaction Biology Corporation) was preincubated with test compound in assay buffer containing 5 μM full-length histone H2A for 20 min at room temperature. The enzymatic reaction was initiated by adding 1 μM tritiated S-adenosyl methionine (final concentration) and the reaction was allowed to proceed for 60 min. The reaction was stopped and transferred to filter paper for detection. The amount of tritiated H2A in each sample was determined using a scintillation counter.

Experiment [2] addresses recombinant human dual expressed Avi PRMT5/His-MEP50 protein (Homo sapiens (Human), UniProt O14744). The experiment is described as follows: HTRF binding assay in presence of MTA. Particulars: 30 μM MTA. In a few lines: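 HTRF tracer-displacement binding using human Avi-PRMT5 (2-637)/His-MEP50 (2-342), baculovirus-expressed, with 30 μM MTA and 5 nM in-house tracer in 25 mM ADA pH 7.2, 1 mM TCEP, 50 mM NaCl, 0.002% Tween. Overnight at 2-8° C, then 0.5 nM anti-His-Tb 1 hr RT; 665/620 ratio ×10000.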
(Time-resolved FRET reads energy transfer from a long-lived donor to a nearby acceptor.)

Experiment [3] concerns the target PRMT5•MTA (biotinylated PRMT5-MEP50) (Homo sapiens (Human), UniProt O14744). The experiment is described as follows: SPR binding assay, MTA running buffer. Particulars: 20 μM MTA running buffer. How it is done:
(§1) SPR screening was performed in MTA running buffer (25 mM Bicine pH 7.6, 100 mM NaCl, 1 mM TCEP, 20 μM MTA, 0.05% Tween-20 and 2% DMSO). The biotinylated PRMT5-MEP50 surface was equilibrated with MTA running buffer for 12 hours prior to the start. […] Subsequently, compound titration was repeated in SAM-running buffer (25 mM Bicine pH 7.6, 100 mM NaCl, 1 mM TCEP, 20 μM SAM, 0.05% Tween-20, and 2% DMSO). […] After double referencing, the steady-state response was extracted for each fragment concentration and was fit to the Langmuir isotherm equation to determine the equilibrium dissociation constant (KD).

The target in experiment [4] is PRMT5•SAM (biotinylated PRMT5-MEP50) (Homo sapiens (Human), UniProt O14744). The experiment is described as follows: SPR binding assay, SAM running buffer. As to conditions: 20 μM SAM running buffer. Here is the method: as §1
For orientation: In SPR one partner is held on a chip, and binding of the other changes the refractive index at the surface.

Experiment [5] concerns the target T1, PRMT5/MEP50 complex. The experiment is described as follows: PRMT5:MEP50 FlashPlate Assay. The experiment is classed as biochemical. In outline:
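3 nM human PRMT5/MEP50 pre-incubated 20 min at room temperature with compound and 40 nM biotinylated histone H4(1-15) peptide; reaction started with 1 μM ³H-SAM, run 20 min. Bound tritiated peptide counted by scintillation; IC50 from 10-point curves (top 50 μM) with and without MTA.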

[6] abbreviates: histone H4 peptide, absence of MTA, read-out: IC50.
The mark [7] stands for this setting: read-out: IC50 + 2 μM MTA, histone H4 peptide, presence of 2 μM MTA.

recombinant human dual expressed Avi PRMT5/His-MEP50 protein, sequence (O14744 2-637): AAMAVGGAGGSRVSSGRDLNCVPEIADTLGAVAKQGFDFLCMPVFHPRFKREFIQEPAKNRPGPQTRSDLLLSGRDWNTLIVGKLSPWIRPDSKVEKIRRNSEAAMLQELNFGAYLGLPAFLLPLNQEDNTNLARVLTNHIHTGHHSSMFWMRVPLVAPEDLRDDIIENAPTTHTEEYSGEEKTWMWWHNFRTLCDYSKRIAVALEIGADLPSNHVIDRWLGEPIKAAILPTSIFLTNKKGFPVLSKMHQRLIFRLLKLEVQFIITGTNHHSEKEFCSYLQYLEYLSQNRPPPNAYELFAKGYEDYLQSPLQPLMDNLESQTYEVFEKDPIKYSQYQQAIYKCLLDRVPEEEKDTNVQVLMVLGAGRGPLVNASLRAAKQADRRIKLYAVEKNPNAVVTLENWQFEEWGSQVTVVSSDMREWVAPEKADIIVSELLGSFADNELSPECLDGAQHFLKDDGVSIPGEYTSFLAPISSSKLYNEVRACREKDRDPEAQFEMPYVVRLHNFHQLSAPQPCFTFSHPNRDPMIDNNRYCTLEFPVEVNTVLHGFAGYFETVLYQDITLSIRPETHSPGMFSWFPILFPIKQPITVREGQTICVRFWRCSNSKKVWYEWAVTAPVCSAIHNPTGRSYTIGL
recombinant human dual expressed Avi PRMT5/His-MEP50 protein, sequence (Q9BQA1 2-342 partner): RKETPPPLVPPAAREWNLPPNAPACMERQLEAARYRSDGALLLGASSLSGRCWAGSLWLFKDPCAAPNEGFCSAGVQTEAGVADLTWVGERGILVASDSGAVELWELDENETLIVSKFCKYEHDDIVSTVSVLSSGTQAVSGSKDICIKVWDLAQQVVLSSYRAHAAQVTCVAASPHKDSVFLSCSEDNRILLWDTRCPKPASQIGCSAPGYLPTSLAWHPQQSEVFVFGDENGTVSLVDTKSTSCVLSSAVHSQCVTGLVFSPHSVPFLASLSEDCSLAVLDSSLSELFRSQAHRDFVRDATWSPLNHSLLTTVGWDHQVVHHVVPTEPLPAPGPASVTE
PRMT5•SAM (biotinylated PRMT5-MEP50), sequence (O14744 whole entry): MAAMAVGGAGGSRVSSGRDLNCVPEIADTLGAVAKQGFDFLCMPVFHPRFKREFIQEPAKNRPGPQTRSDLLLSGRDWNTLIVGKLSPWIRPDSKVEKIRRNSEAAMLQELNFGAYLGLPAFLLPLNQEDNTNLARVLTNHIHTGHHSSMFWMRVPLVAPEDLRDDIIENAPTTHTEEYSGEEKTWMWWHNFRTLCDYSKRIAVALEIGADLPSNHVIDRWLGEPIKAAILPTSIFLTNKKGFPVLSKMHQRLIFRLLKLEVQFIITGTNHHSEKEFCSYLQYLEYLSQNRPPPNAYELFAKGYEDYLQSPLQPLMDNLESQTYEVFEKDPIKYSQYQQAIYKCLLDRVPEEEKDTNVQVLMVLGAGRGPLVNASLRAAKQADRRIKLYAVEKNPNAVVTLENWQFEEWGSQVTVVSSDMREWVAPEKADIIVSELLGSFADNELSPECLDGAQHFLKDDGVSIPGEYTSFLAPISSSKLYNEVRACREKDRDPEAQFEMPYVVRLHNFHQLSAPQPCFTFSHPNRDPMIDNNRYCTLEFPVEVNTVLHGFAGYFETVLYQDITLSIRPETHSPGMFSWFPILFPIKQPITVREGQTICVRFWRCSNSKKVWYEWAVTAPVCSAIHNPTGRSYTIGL
PRMT5•SAM (biotinylated PRMT5-MEP50), sequence (Q9BQA1 whole entry partner): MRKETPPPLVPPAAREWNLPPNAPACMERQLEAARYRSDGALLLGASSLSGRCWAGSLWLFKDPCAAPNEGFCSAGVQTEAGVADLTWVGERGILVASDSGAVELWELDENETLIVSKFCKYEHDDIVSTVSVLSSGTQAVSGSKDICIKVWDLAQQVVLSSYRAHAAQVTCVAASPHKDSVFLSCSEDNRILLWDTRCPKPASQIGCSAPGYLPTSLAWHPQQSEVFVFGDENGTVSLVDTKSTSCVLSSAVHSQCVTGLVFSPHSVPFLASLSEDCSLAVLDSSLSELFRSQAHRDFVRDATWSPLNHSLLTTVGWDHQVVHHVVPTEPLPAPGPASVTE
T1 sequence (O14744 whole entry): as the sequence (O14744 whole entry) above
T1 sequence (Q9BQA1 whole entry partner): as the sequence (Q9BQA1 whole entry partner) above
PRMT5•MTA (biotinylated PRMT5-MEP50), sequence (O14744 whole entry, the tested form may be a part): as the sequence (O14744 whole entry) above
PRMT5•MTA (biotinylated PRMT5-MEP50), sequence (Q9BQA1 whole entry partner, the tested form may be a part): as the sequence (Q9BQA1 whole entry partner) above

One may read the IC50 as the concentration that inhibits the measured activity by half. In the case of `Cc1cc2ncc(C(=O)N(Cc3ccc(C(F)(F)F)cn3)[C@@H]3CCCc4nccnc43)cc2nc1N` [Example 10-6, (R)-6-amino-7-methyl-N-(5,6,7,8-tetrahydroquinoxalin-5-yl)-N-((5-(trifluoromethyl)pyridin-2-yl)methyl)-1,5-naphthyridine-3-carboxamide], the concentration for half-maximal inhibition (IC50) on PRMT5/MEP50 complex [1] came to 925 nM.

With `Cc1cc(N)nc2cc(C(=O)N(Cc3ccc(Br)cn3)[C@@H](C)c3ncccn3)cnc12` [Example 10-11, 6-amino-N-[(5-bromo-2-pyridyl)methyl]-8-methyl-N-[(1S)-1-pyrimidin-2-ylethyl]-1,5-naphthyridine-3-carboxamide], the IC50 on PRMT5/MEP50 complex [1] worked out at 10400 nM.

On to `Cc1cc2[nH]c(C(=O)N(Cc3ccc(C(F)(F)F)cn3)C3CCCc4nccnc43)cc2nc1N` (stereo in doubt) [Example 10-4, (R)-5-amino-6-methyl-N-(5,6,7,8-tetrahydroquinoxalin-5-yl)-N-((5-(trifluoromethyl)pyridin-2-yl)methyl)-1H-pyrrolo[3,2-b]pyridine-2-carboxamide], for which the concentration for half-maximal inhibition (IC50) at PRMT5/MEP50 complex [1] turned out to be 379 nM.

`Cc1cc2ncc(C(=O)N(Cc3ccc(C(F)(F)F)cn3)[C@H]3CCCc4nccnc43)cc2nc1N` [Example 10-5, (S)-6-amino-7-methyl-N-(5,6,7,8-tetrahydroquinoxalin-5-yl)-N-((5-(trifluoromethyl)pyridin-2-yl)methyl)-1,5-naphthyridine-3-carboxamide]: on PRMT5/MEP50 complex [1], the IC50 was found to be 14700 nM.

What is called Kd is the equilibrium constant for the complex coming apart. Higher therefore signals weaker binding. Regarding `CC(=O)N(Cc1cnc2c(C)cc(N)nc2c1)c1ccc2ccccc2c1C#N` [Example 7-5, N-[(6-amino-8-methyl-1,5-naphthyridin-3-yl)methyl]-N-(1-cyano-2-naphthyl)acetamide], the IC50 was found to be 3 nM in experiment [2], 6460 nM on PRMT5/MEP50 complex [5] (setting [6]), 20.3 nM at PRMT5/MEP50 complex [5] (setting [7]) and 1340 nM at PRMT5/MEP50 complex [1]. Further, the Kd in experiment [3] and in experiment [4] was 2 nM each time.

As to `Cc1cc2[nH]c(C(=O)N(Cc3ccc(C(F)(F)F)cn3)[C@H]3CCCc4nccnc43)cc2nc1N` [Example 10-3, (S)-5-amino-6-methyl-N-(5,6,7,8-tetrahydroquinoxalin-5-yl)-N-((5-(trifluoromethyl)pyridin-2-yl)methyl)-1H-pyrrolo[3,2-b]pyridine-2-carboxamide], the IC50 on PRMT5/MEP50 complex [1] came out at 10300 nM.

With `Cc1cc2[nH]c(CN3C(=O)c4ccccc4C3=O)cc2nc1N` [Example 14-1, 2-((5-amino-6-methyl-1H-pyrrolo[3,2-b]pyridin-2-yl)methyl)isoindoline-1,3-dione], the half-inhibitory concentration (IC50) in experiment [2] stood at 7 nM; at PRMT5/MEP50 complex [5] (setting [6]) it was 10100 nM; at PRMT5/MEP50 complex [5] (setting [7]) it was 12.1 nM; at PRMT5/MEP50 complex [1], 626 nM. Besides, the dissociation constant (Kd) was 1 nM in experiment [3] and 6 nM in experiment [4].

`Cc1cc2ncc(C(=O)N(Cc3ccc(Br)cn3)[C@@H](C)c3ncccn3)cc2nc1N` [Example 10-7, (S)-6-amino-N-((5-bromopyridin-2-yl)methyl)-7-methyl-N-(1-(pyrimidin-2-yl)ethyl)-1,5-naphthyridine-3-carboxamide]: the 50% inhibitory concentration (IC50) on PRMT5/MEP50 complex [1] is 16200 nM.

As for `CC(=O)N(Cc1cc2nc(N)c(C)cc2[nH]1)c1ccc2ccccc2c1C#N` [Example 14-2, N-[(5-amino-6-methyl-1H-pyrrolo[3,2-b]pyridin-2-yl)methyl]-N—(I-cyano-2-naphthyl)acetamide], the IC50 in experiment [2] stood at 2 nM; on PRMT5/MEP50 complex [5] (setting [6]), 798 nM; on PRMT5/MEP50 complex [5] (setting [7]), 1.72 nM; at PRMT5/MEP50 complex [1] it was 553 nM. For the same molecule, the Kd in experiment [3] and in experiment [4] was 1 nM each time.
